For one experiment, the system named is external tasters. Kind of experiment: Cajun BBQ potato chips focus group taste test. Format: in vivo, human. Conditions: chips with 3 ppm compound; eleven panelists. The procedure: Two solid savory flavor concentrate compositions were prepared by spray drying procedures equivalent to those reported in Example 35. One savory flavor concentrate sample, comprising 0.01% (wt/wt) of the compound of Example 1 was prepared via from the compound of Example 1, Neobee M-5 medium chain triglycerides, N-Lok 1930 modified food starch, and maltodextrin. Another savory flavor concentrate sample, comprising 0.01% (wt/wt) of the compound of Example 24 was similarly prepared via from the compound of Example 24, Neobee M-5 medium chain triglycerides, N-Lok 1930 modified food starch, and maltodextrin. A basic dry seasoning mix for providing Cajun flavor for the chips was prepared by dry blending the ingredients in Table 38-1 using a […] blender for 5 minutes at 40-80 rpms using a wire whip attachment. Kettle® Unsalted potato chips were hand broken into reasonably uniform 1⁄2''×1⁄2'' pieces and placed in a polyethylene 26.7 cm×27.9 cm non-vented food bag. The chips were then heated in an Amana Commercial 1200 watt microwave for 20 seconds to release oils, and so the seasoning would adhere to the chips. […] The panelists evaluated the four sample types of Cajun BBQ chips in a Focus Group taste test procedure and were instructed to write comments on several attributes: sweet, BBQ, Cajun spice, pepper, onion, salt, potato, umami, off tastes, other, and liking or disliking. […]

Experiment [1] concerns human panelists, savory taste. Kind of experiment: Savory taste test with trained human panel (difference from reference). Format: in vivo. Conditions: for Taste Data: cpd concentration at which 12 mM MSG + cpd is as strong as 12 mM MSG + 100 μM IMP: with 12 mM MSG, reference 12 mM MSG + 100 μM IMP. The protocol: General Panelist Selection: Basic screening of sensory taste testers: Potential panelists were tested for their abilities to rank and rate intensities of solutions representing the five basic tastes. Panelists ranked and rated intensity of five different concentrations of each of the five following compounds: sucrose (sweet), sodium chloride (salty), citric acid (sour), caffeine (bitter), and monosodium glutamate (savory). In order to be selected for participation in testing, panelists needed to correctly rank and rate samples for intensity, with a reasonable number of errors.
Preliminary Taste Tests: The panelists selected in the above procedure were deemed qualified for performing Preliminary Taste Testing procedures. The preliminary taste tests are used to evaluate new compounds for intensity of basic tastes and off-tastes. A small group of panelists (n=5) taste approximately 5 concentrations of the compound (range typically between 1-100 μM, in half-log cycles, e.g., 1, 3, 10, 30, and 100 μM) in water and in a solution of 12 mM MSG to evaluate enhancement. Panelists rate the five basic tastes (sweet, salty, sour, bitter, and savory) as well as off-tastes (such as chemical, metallic, sulfur) on a labeled magnitude scale. Samples are served in 10 mL portions at room temperature. The purpose of the test is to determine the highest concentration at which there is no objectionable off-taste, and determine if obvious savory taste or enhancement of savory taste exists at any of the concentrations tested.
Trained Panelist Selection: A trained expert panel was used to further evaluate compounds that had been tested with the preliminary taste test.
Panelists for the trained panel were selected from the larger group of qualifying taste panelists. Panelists were further trained on savory taste by ranking and rating experiments using MSG and IMP combinations. Panelists completed a series of ranking, rating, and difference from reference tests with savory solutions. In ranking and rating experiments, panelists evaluated easy MSG concentrations (0, 6, 18, 36 mM) and more difficult MSG concentrations (3, 6, 12, 18 mM MSG) in water.
Compound testing with Trained Panel: Compounds tested by the trained panel were evaluated in difference from reference experiments. […] Test samples were solutions with varying amounts of MSG, IMP, and the compound. Typically, each session compares the reference sample to numerous test samples. […] Compounds were tested against the reference in samples with and without 12 mM MSG. All samples were presented in 10 ml volumes at room temperature. Two sessions were completed for each compound tested to evaluate panel reproducibility.

Consider `COc1ccc(CNC(=O)C(=O)NCCc2ccccn2)c(OC)c1` [Example 24, N-(2,4-Dimethoxy-benzyl)-N′-(2-pyridin-2-yl-ethyl)-oxalamide], for which the “Panelists reporting higher intensity of Cajun spice and pepper flavors” value in the experiment with external tasters is listed as 9/11. The “Taste Data: cpd concentration as strong as 12 mM MSG” value in experiment [1] (compound alone, without MSG) was 1 μM cpd as strong as. In addition, the “Taste Data: cpd concentration at which 12 mM MSG + cpd is as strong as 12 mM MSG + 100 μM IMP” value in experiment [1] was found to be 12 mM MSG + 1 μM cpd as.
For the compound `CCCC(CCC)NC(=O)c1ccc2c(c1)OCO2` [Example 1, N-(heptan-4-yl)benzo[d][1,3]dioxole-5-carboxamide], the “Panelists reporting higher intensity of Cajun spice and pepper flavors” value in the experiment with external tasters is 9/11. Also, the “Taste Data: cpd concentration at which 12 mM MSG + cpd is as strong as 12 mM MSG + 100 μM IMP” value in experiment [1] is given as 12 mM MSG + 3 μM cpd as.
